Source: a melting point compilation (Tetko et al.; mined from patent text by program, amines drawn as free bases though some values may be those of a salt)

Point of comparison: `O=C(N[C@H]1CC[C@H](CCN2CCN(c3nccc4c3OCC4)CC2)CC1)c1ccc(Cl)cc1Cl`, melting point 244 °C. Against it:
- O=C1CC(c2ccccc2)CC(=O)C1C(=O)c1ccc(Cl)cc1[N+](=O)[O-] (centres undefined) — lower, 144 to 145 °C
- O=C1CCC2=C(CCc3cccc(Cl)c32)N1 — lower, 184 °C
- CC(=O)C(C(C)=O)C(C(C)=O)C(C)=O — lower, 193 to 194 °C
- O=CN(O)C(CO)CS(=O)(=O)c1ccc(Oc2ccc(OC(F)(F)F)cc2)cc1 (centres undefined) — lower, 115 to 117 °C
- c1ccc2ncc(N3CCNCC3)cc2c1 — lower, 87.7 to 88.5 °C
- CCCCCCCCCCCCCCCCCCC(COC(C)=O)(COC(C)=O)NC(C)=O — lower, 90 to 91 °C
- CNC(=O)c1ccc(-c2cccc3nc(Nc4cc(OC)c(OC)c(OC)c4)oc23)cc1 — higher, 258 to 259 °C
- O=C(O)c1ccc(N2C(=O)CCC2(CO)CO)cc1 — lower, 195 to 197 °C
- O=c1[nH][nH]c(=O)c2c(O)c3ccc(Br)cc3nc12 — higher, 278 °C
- CC(C)(C)OC(=O)n1cccc1-c1ccc2c(c1)C(C)(C)C(=O)N2 — lower, 168 to 170 °C
- CSC(Oc1cc2cc(Br)cnc2cc1C)C(=O)NC(C)(C)C (centres undefined) — lower, 132 to 134 °C
- CCOP(=O)(CNc1cc(Oc2ccc(C(F)(F)F)cc2Cl)ccc1[N+](=O)[O-])OCC — lower, 78 to 79 °C
- COc1cc(NC(=O)CCCCCN2CCNCC2)c2nccc(C)c2c1 — lower, 122 to 124 °C
- Cc1ccc2c(c1)C1CN(CCCC#N)CCC1N2 (centres undefined) — lower, 160 to 165 °C
- Cn1c(COc2ccc(CC3SC(=O)NC3=O)cc2)nc2ccc(Oc3ccc(NC(=S)NCc4ccccc4)cc3)cc21 (centres undefined) — lower, 175 to 177 °C
- CCC(=NO)c1nc(C)nc2c1c(C)c(C)n2-c1c(C)cc(C)cc1C — lower, 84 to 87 °C
- OCC(O)Cc1nccn1CCCc1cccc(OCc2coc(/C=C/c3ccc(C(F)(F)F)cc3)n2)c1 (centres undefined) — lower, 102 to 104 °C
- C#CCc1c(C)nc2c(OCc3ccccc3)cccn12 — lower, 112 °C
- COC(=O)[C@H]1[C@H](C(=O)OC)C1(Br)C=O (some centres undefined) — lower, 52 °C
- CCN1CCN(c2ccc(-c3ccc4c(Nc5ccc(Sc6nccn6C)c(Cl)c5)c(C#N)cnc4c3)nc2)CC1 — higher, 246 to 248 °C
- COc1cc(COc2cc(N)c(Cl)cc2C(=O)CCCCN2CCC(C)(C)CC2)cc(OC)c1 — lower, 135 to 136 °C
- C#Cc1cc(C)cc(C)c1-c1c(O)c(C)nn(C)c1=O — lower, 179 to 181 °C
- CCCC(Cl)C(=O)c1ccccc1 (centres undefined) — lower, 71 to 72 °C
- C=CCNc1nc(NCC=C)nc(N2CCN(C(=O)n3ccnc3)CC2)n1 — lower, 78 to 82 °C
- COc1cccc(C(=O)O)c1N — lower, 172 to 175 °C
- COC1c2c(ccc3cnn(CC(C)N)c23)OCC1O (centres undefined) — lower, 105 to 108 °C
- CC(C)C[C@H](NC(=O)CCC1CCCCC1)C(=O)N[C@@H](Cc1ccccc1)C(=O)CSCc1ccco1 — lower, 116 to 118 °C
- Cc1nc(C=CNC(=O)c2ccccc2)n[nH]1 — lower, 140 to 145 °C
- Nc1cc(-c2ccoc2)ccc1Nc1cccc(-n2cccc2)c1 — lower, 194 to 195 °C
- CCC(=O)c1cc(C#N)c(=O)[nH]c1CC — not separable, 243 to 245 °C
- Fc1ccc2ncn3ncnc3c2c1 — lower, 193 to 195 °C
- COc1cc(Nc2c(C#N)cnc3cc(/C=C/CCN4CCCCC4)c(OC)cc23)c(Cl)cc1Cl — lower, 140 to 142 °C
- CCOC(=O)c1ccc(I)cc1N — lower, 51 to 53 °C
- CCOC(=O)C(C)(C)C(O)C(c1ccc(Cl)cc1)n1ccnc1 (centres undefined) — lower, 120 to 124 °C
- CCC(CCNC(=O)CC#N)NC(=O)CC#N (centres undefined) — lower, 125 °C
- COC(=O)c1cc2cc(OC)c(OC)cc2c(-c2ccncc2)c1C(=O)OC — lower, 196 to 198 °C
- CCOC(=O)COc1cc(C(=O)OC)on1 — lower, 66 to 67 °C
- O=C(Nc1csc(-c2ccncc2)n1)Nc1cccc2c1C1CCCCN1C2=O (centres undefined) — lower, 152 °C
- CC(=O)OCCCCCC(=O)CC(=O)c1ccccc1 — lower, 23 to 24 °C
- O=c1[nH]cnc2c1ncn2[C@@H]1C[C@H](O)[C@@H](O)[C@H]1O (racemic) — lower, 198 to 201 °C
- CS(=O)(=O)c1ccc(Oc2cc(OCc3ccccc3)c3[nH]c(-c4ncc(CO)s4)cc3c2)cc1 — lower, 125 to 126 °C
- CCCc1c(OCCCOc2cccnc2CCC(=O)OC)ccc(C(C)=O)c1O — lower, 85 to 87 °C
- N[C@@H](CSCC1CCN(C(=O)OCc2ccccc2)CC1)C(=O)O — lower, 187 to 190 °C
- Sc1nc2ccc(Cl)cc2c2nc(-c3ccc(Br)o3)nn12 — higher, 273 to 276 °C
- CC(=O)c1c(C)[nH]c(CC(C)(C)C)c1C — lower, 156 to 163 °C
- O=C(O)CCCc1cc2nc(Cl)ccc2n1S(=O)(=O)c1ccc(-c2ccncc2)cc1 — lower, 174 °C
- N#Cc1ccc(NC(=NS(=O)(=O)c2ccccc2)NCC(=O)O)cc1 — lower, 133 °C
- O=C(O)c1cn(Cc2ccccc2)c2nc(N3CCNCC3)ncc2c1=O — higher, 250 to 253 °C
- O=C1c2c(F)c(F)c(F)c(F)c2C(=O)N1c1ccc(F)cc1F — lower, 145 to 146 °C
- CCOC(=O)C1(C(=O)OCC)COC2(CC(C)(C)N(C(C)=O)C(C)(C)C2)OC1 — lower, 75 to 77 °C
- CCn1c(C)c(C2(N(c3ccccc3)c3ccccc3C(=O)OC)OC(=O)c3ccccc32)c2ccccc21 (centres undefined) — lower, 80 to 115 °C
- COc1cccc(C(=O)c2ccc(=O)n(Cc3ccc(Cl)cc3)c2)c1 — lower, 104 °C
- CC(C)c1nn2ccccc2c1C(O)C(C)C (centres undefined) — lower, 69 °C
- CCOC(=O)/C=C/C(=O)Nc1ccc2ncnc(Nc3cccc(Br)c3)c2c1 — higher, 259 to 263 °C
- CC(C)(C)c1ncc(Br)cn1 — lower, 50 to 51 °C
- O=C(Nc1cc2ncc(CN3CCCC3)cc2cc1N1CCCC1)c1ccc(-c2ccc(F)cc2)cc1 — lower, 182 to 184 °C
- COc1cc(N2CCN(C)CC2)ccc1Nc1ncc2cc3ccccc3n2n1 — lower, 150 to 153 °C
- CCc1[nH]n(C2CCCC2)c2nc(-c3cccc(OCCN4CCCCC4)c3)nc(=O)c1-2 — lower, 180 °C
- CCOC(=O)Oc1cc2occ(C=O)c(=O)c2cc1OC(=O)OCC — lower, 101 to 102 °C
- Cn1c(CO)cnc1[N+](=O)[O-] — lower, 142 to 144 °C
- Cc1cccc(-c2nc3cccnn3c2-c2ccnc(NCC3CCCO3)c2)c1 (centres undefined) — lower, 137 to 138 °C
- N#CC1CN1C(=O)c1ccccn1 (centres undefined) — lower, 124 to 127 °C
- C=CCn1cc(-c2ccccc2)c(=O)c(-c2cccc(C(F)(F)F)c2)c1 — lower, 107 to 109 °C
- O=C(Nc1ccc(S(=O)(=O)N2CCOCC2)cc1)c1cc(N2CCOCC2)ccc1[N+](=O)[O-] — higher, 252 °C
- O=C(NCc1ccccc1)Nc1ccc(N2CC(c3ccccc3)CC2=O)cn1 (centres undefined) — lower, 172 to 173 °C
- O=C(N[C@H]1CC[C@H](CCN2CCC(c3cccc4c3CCO4)CC2)CC1)c1ccc(-c2cccnc2)cc1 — lower, 224 °C
- CCNC(=NS(=O)(=O)c1cccc(C#N)c1)N1CC(CC)C=N1 (centres undefined) — lower, 164 to 168 °C
- Cc1cc(C)n2nc(Sc3ccccc3Cl)nc2n1 — lower, 143 °C
- CN(CCO)S(=O)(=O)c1cc(NC(=O)c2cnn3c(C(F)(F)F)cc(-c4ccc(C(F)(F)F)cc4)nc23)c(Cl)s1 — lower, 221 °C
- CON1C(C)(C)CC(OC(=O)CCc2cc(-n3nc4ccccc4n3)c(O)c(C(C)(C)C)c2)CC1(C)C — lower, 135 to 137 °C
- C[C@H]1CC(=O)N1c1ccc(C(=O)OCc2ccccc2)cc1 — lower, 89 °C
- CCOC(=O)Cc1nc(-c2ccc(F)cc2)c(-c2ccc(S(C)(=O)=O)cc2)o1 — lower, 123 to 124 °C
- COC(=O)c1c(SC)c2cc(OC)ccc2n1C — lower, 89 to 91 °C
- CCOC(=O)COc1ccc(SCc2cccc3nc(-c4ccc(C(F)(F)F)cc4)oc23)cc1C — lower, 180 to 182 °C
- CCOC(=O)C(=O)NNc1ccc(NC(=S)NC)cc1 — lower, 168 to 169 °C
- COC(=O)c1ccc(OCc2ccccc2)c(C(C)=O)c1 — lower, 68 to 72 °C
- O=C1Cc2cc(CCN3CCN(c4nsc5ccccc45)CC3)c(Cl)cc2N1 — lower, 218 to 220 °C
- CC(=O)Oc1ccc2cc(NCCCCNC(=O)OC(C)(C)C)c(=O)oc2c1 — lower, 120 °C
- CC/C=C/CNc1cccc(-c2ccnc3c(C(=O)c4cccs4)cnn23)c1 — lower, 72 to 75 °C
- N#Cc1ccc(OCCCCCCOc2cccc(-c3cc4cc(C#N)ccc4o3)c2)cc1 — lower, 134 to 136 °C
- COc1ccc2c(c1)C(=NOCCCN)c1c-2c(N2CCNCC2)nc2ccccc12 — lower, 89 to 90 °C
- C=C1CN(S(=O)(=O)c2ccc(C)cc2)CCCN(Cc2ccccc2)CCCN(S(=O)(=O)c2ccc(C)cc2)C1 — lower, 156 to 158 °C
- S=C(Oc1ccccc1)c1ccccc1 — lower, 56 °C
- CC12CCCC=C1CCC1C2CCC2(C)C(OC3CCCCO3)CCC12 (centres undefined) — lower, 92 to 96 °C
- C=C(C)SC1C(NC(=O)COc2ccccc2)C(=O)N1C=O (centres undefined) — lower, 156 to 158 °C
- NC(Cc1cc2nccnc2cc1CP(=O)(O)O)C(=O)O (centres undefined) — higher, 250 °C
- CCOC(=O)C(C)Oc1ccc2c(-c3ccc(Cl)cc3)noc2c1 (centres undefined) — lower, 95 °C
- COc1cc2ncc(C#N)c(Nc3cccc(C(N)=O)c3)c2cc1OC — higher, 253 to 255 °C
- CNC(=S)NS(=O)(=O)c1cc2c(cc1OC)OCCC2CNC(=O)c1cc(Cl)ccc1OC (single isomer, unassigned; (+)) — lower, 201 °C
- CC(C)N1CCC(CNc2ccc(NS(C)(=O)=O)cc2C(=O)Nc2ccc(Cl)cn2)CC1 — lower, 204 to 205 °C
- CONS(=O)(=O)c1cccc([N+](=O)[O-])c1 — lower, 111 to 113 °C
- CC(c1ccc(-c2ccccc2)c(F)c1)c1cc(N(C)C(=S)NC(=O)c2ccccc2)on1 (centres undefined) — lower, 115 to 116 °C
- CCC1Nc2c(C)cccc2-n2cccc21 (centres undefined) — lower, 65 to 68 °C
- N#Cc1ccc(Nc2nc(Oc3c(Br)cc(C=O)cc3Br)ccc2[N+](=O)[O-])cc1 — lower, 218 to 220 °C
- CCCCCCn1c2cc(CO)ccc2c2ccc(CO)cc21 — lower, 98 to 99 °C
- CCOCCn1cc(C2CCN(CCOc3ccc(C)cc3C(=O)O)CC2)c2cc(OC)ccc21 — lower, 144 to 146 °C
- CC(C)(C)OC(=O)N1CCN2C(=O)OC(c3ccccc3)(c3ccccc3)C2C1 (centres undefined) — lower, 151 to 152 °C
- CC(C(=O)O)c1ccc2c(c1)C(=O)Cc1ccccc1O2 (centres undefined) — lower, 152 to 154 °C
